The values below come from US8063077B2, “Factor Xa inhibitors” (Millennium Pharmaceuticals, Inc., priority 2006, dated 2011).

Bounds are passed on as bounds.

The nature of series [1]: Pharmacokinetics of Compound 10 in rat (IV and PO), plasma and urine by LC/MS/MS. The series is classed as in vivo, male Sprague-Dawley rats. Also noted: AUC/D (dose-normalized AUC(0-inf)): unit not given here. Particulars: mean ± SD. The method, then: Compound 10 was used in the rat investigation. An intravenous (IV) and oral (PO) dose of Compound 10 (1.0 and 10 mg/kg, respectively) was prepared. The IV dose was solubilized in 50% PEG300 to yield a final concentration of 1.0 mg/mL with a final pH of 5.13. The PO dose was suspended in 0.5% methylcellulose at a concentration of 2.0 mg/mL with a final pH of 2.70.
A total of six male Sprague-Dawley rats (n=3/dosing group) from Charles River Laboratories (Hollister, Calif.), three male beagle dogs from Marshall BioResources (North Rose, N.Y.) and three male rhesus monkeys were utilized. All surgical procedures in rat (femoral and jugular vein catheterizations) were performed 8 days prior to utilization in the study and rats were acclimated in-house 5 days prior to utilization. Dogs were acclimated in-house at least seven days prior to utilization and were returned to the colony at the completion of the study. Monkey studies were conducted by an off-site contract laboratory.
All animals were fasted from the afternoon prior to study initiation to two hours post-dose (approximately 18 hours). Water was provided ad libitum. All animal rooms were on a 12 hour light-dark cycles (6 A.M. to 6 P.M.). On the morning of experimentation, animals were weighed. Rat femoral and jugular (IV only) vein blood lines were exteriorized and attached to access ports. […]
(§1) All animals were dosed based on individual weights with a PO gavage volume of 5.0 mL/kg and an IV bolus dose volume of 1.0 mL/kg. […] At collection times, urine volume and water consumption was recorded. […]
(§2) Plasma and urine samples were analyzed for Compound 10 concentration using a liquid chromatography tandem mass spectrometry (LC/MS/MS). […] The peak areas of the m/z 411→250 product ion (Compound 10) were measured against those of the m/z 470→342 product ion (N-(2-(5-chloropyridin-2-ylcarbaomoyl)-4-methoxyphenyl)-4-(N,N-dimethylcarbamimidoyl)-2-fluorobenzamide) in positive ion mode. […]
(§3) Sample Compound 10 concentrations below the lower limit of quantitation (LLQ) were reported as <0.500 ng/mL. […]

Series [2] in a line: Pharmacokinetics of Compound 10 in dog (IV and PO), plasma by LC/MS/MS. It counts as in vivo, male beagle dogs. Also noted: AUC/D (dose-normalized AUC(0-inf)): unit not given here. Particulars: mean ± SD. The method, then: (§4) For the dog and monkey study, Compound 10 was also used. An IV and PO dose of Compound 10 (1.0 and 5.0 mg/kg, respectively) was prepared. The IV dose was formulated similarly to that used in the rat study (50% PEG300 in water). The PO dose was suspended in 0.5% methylcellulose at a concentration of 1.0 mg/mL with a final pH of approximately 3.50.
(§5) A total of six male Sprague-Dawley rats (n=3/dosing group) from Charles River Laboratories (Hollister, Calif.), three male beagle dogs from Marshall BioResources (North Rose, N.Y.) and three male rhesus monkeys were utilized. […]
as §1, §2, §3

Series [3] can be described thus: Pharmacokinetics of Compound 10 in monkey (IV and PO), plasma by LC/MS/MS. It counts as in vivo, male rhesus monkeys. Also noted: AUC/D (dose-normalized AUC(0-inf)): unit not given here. Particulars: mean ± SD. The method, then: as §4, §5, §1, §2, §3
The target in series [4] is T1, human plasma protein factor Xa (Homo sapiens, UniProt P00742).
T1 construct: The human plasma protein factor Xa was purchased from Haematologic Technologies; purchased Haematologic Technologies (Essex Junction, Vt.); host or cells: human plasma
Briefly: Factor Xa IC50 determination, cleavage of paranitroanilide substrate S-2765. The series is classed as biochemical. Conditions: factor Xa 1 nM, S2765 100 μM, Tris buffered saline pH 7.4, 5% DMSO. An excerpt: This example illustrates methods for evaluating the compounds of the invention, along with results obtained for such assays. The in vitro and in vivo human Factor Xa activities of the inventive compounds can be determined by various procedures known in the art, such as a test for their ability to inhibit the activity of human plasma Factor Xa. […] The IC50 value is the concentration (in nM) of the compound required to provide 50% inhibition of human Factor Xa proteolytic activity.
An in vitro assay for detecting and measuring inhibition activity against Factor Xa is as follows:
The substrate S-2765 (Z-D-Arg-Gly-Arg-pNA•HCl) was obtained from Diapharma (West Chester, Ohio).
The human plasma protein factor Xa was purchased from Haematologic Technologies (Essex Junction, Vt.).
All assays, which are performed in 96-well microtiter plates, measure proteolytic activity of the enzyme (factor Xa) by following cleavage of a paranitroanilide peptide substrate. The assay buffer used for proteolytic assays was Tris buffered saline (20 mM Tris, 150 mM NaCl, 5 mM CaCl2, 0.1% Bovine serum albumin (BSA), 5% Dimethly Sulfoxide (DMSO) pH 7.4). In a 96-well microtiter plate, inhibitor was serially diluted to give a range of final concentrations from 0.01 nM to 10 μM. Duplicate sets of wells were assayed and control wells without inhibitor were included. Enzyme was added to each well, (factor Xa concentration=1 nM), the plate was shaken for 5 seconds and then incubated for 5 minutes at room temperature. S2765 was added (100 μM final) and the plate was shaken for 5 seconds (final volume in each well was 200 μl). The degree of substrate hydrolysis was measured at 405 nm on a Thermomax plate reader (Molecular Devices, Sunnyvale, Calif.) for 2 minutes. The initial velocities of substrate cleavage (mOD/min), for each range of inhibitor concentrations, were fitted to a four parameter equation using Softmax data analysis software. The parameter C, derived from the resulting curve-fit, corresponded to the concentration for half maximal inhibition (IC50).

T1 sequence (P00742 235-488 limits assumed): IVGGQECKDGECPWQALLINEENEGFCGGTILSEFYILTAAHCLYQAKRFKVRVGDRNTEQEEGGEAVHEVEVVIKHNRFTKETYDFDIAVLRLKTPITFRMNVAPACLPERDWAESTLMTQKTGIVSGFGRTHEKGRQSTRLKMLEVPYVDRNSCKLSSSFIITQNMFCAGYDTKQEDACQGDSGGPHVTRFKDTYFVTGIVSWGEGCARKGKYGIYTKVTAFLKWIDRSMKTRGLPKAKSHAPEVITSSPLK
T1 sequence (P00742 41-179 partner limits assumed): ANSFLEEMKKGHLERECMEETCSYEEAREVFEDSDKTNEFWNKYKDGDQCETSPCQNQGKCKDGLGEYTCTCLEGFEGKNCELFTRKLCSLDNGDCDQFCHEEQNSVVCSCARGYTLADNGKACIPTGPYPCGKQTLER

Regarding `O=C(NCc1cn(-c2ccc(-n3ccccc3=O)cc2)cn1)c1ccc(Cl)s1` [Compound 10, 5-Chloro-N-((1-(4-(2-oxopyridin-1(2H)-yl)phenyl)-1H-imidazol-4-yl)methyl)thiophene-2-carboxamide], in series [1] (intravenous, 1 mg/kg, urine to 24 hours post-dose), the “Dose excreted unchanged in urine” value came to 0.248 ± 0.019%. Besides, the bioavailability amounted to 127 ± 23.1% in series [1] (male, Sprague-Dawley, plasma, oral 10 mg/kg vs intravenous 1 mg/kg, read-out: F (absolute bioavailability)); 68.5 ± 15.5% in series [2] (male, beagle, plasma, oral 5 mg/kg vs intravenous 1 mg/kg, read-out: F (absolute bioavailability)); 71.6 ± 18.1% in series [3] (male, rhesus, rhesus monkey, plasma, oral 5 mg/kg vs intravenous 1 mg/kg, read-out: F (absolute bioavailability)). Also, the “AUC/D (dose-normalized AUC(0-inf))” value is listed as 6859 ± 1249 in series [1] (oral, 10 mg/kg, n=3); 1095 ± 295 in series [2] (oral, 5 mg/kg, n=3); 8430 ± 3449 in series [3] (oral, 5 mg/kg, n=3). Besides, in series [4], the IC50 was not above 100 nM.
In turn, `CS(=O)(=O)c1nc(CNC(=O)c2ccc(Cl)s2)cn1-c1ccc(-n2cc(F)ccc2=O)cc1` [Compound 65, 5-chloro-N-((1-(4-(5-fluoro-2-oxopyridin-1(2H)-yl)phenyl)-2-(methylsulfonyl)-1H-imidazol-4-yl)methyl)thiophene-2-carboxamide] yielded a concentration for half-maximal inhibition (IC50) in series [4] not above 100 nM.
On the same count and under the same terms, as for `C[S+]([O-])c1nc(CNC(=O)c2ccc(Cl)s2)cn1-c1ccc(-n2cccc(F)c2=O)cc1` (centres unmarked) [Compound 66, 5-chloro-N-((1-(4-(3-fluoro-2-oxopyridin-1(2H)-yl)phenyl)-2-(methylsulfinyl)-1H-imidazol-4-yl)methyl)thiophene-2-carboxamide], the figure is not above 100 nM; as for `CS(=O)(=O)c1nc(CNC(=O)c2ccc(Cl)s2)cn1-c1ccc(-n2cccc(F)c2=O)cc1` [Compound 67, 5-chloro-N-((1-(4-(3-fluoro-2-oxopyridin-1(2H)-yl)phenyl)-2-(methylsulfonyl)-1H-imidazol-4-yl)methyl)thiophene-2-carboxamide], not above 100 nM.
